Biological target: EGFR (human) (UniProt P00533)
Sequence (P00533 whole entry, looked up): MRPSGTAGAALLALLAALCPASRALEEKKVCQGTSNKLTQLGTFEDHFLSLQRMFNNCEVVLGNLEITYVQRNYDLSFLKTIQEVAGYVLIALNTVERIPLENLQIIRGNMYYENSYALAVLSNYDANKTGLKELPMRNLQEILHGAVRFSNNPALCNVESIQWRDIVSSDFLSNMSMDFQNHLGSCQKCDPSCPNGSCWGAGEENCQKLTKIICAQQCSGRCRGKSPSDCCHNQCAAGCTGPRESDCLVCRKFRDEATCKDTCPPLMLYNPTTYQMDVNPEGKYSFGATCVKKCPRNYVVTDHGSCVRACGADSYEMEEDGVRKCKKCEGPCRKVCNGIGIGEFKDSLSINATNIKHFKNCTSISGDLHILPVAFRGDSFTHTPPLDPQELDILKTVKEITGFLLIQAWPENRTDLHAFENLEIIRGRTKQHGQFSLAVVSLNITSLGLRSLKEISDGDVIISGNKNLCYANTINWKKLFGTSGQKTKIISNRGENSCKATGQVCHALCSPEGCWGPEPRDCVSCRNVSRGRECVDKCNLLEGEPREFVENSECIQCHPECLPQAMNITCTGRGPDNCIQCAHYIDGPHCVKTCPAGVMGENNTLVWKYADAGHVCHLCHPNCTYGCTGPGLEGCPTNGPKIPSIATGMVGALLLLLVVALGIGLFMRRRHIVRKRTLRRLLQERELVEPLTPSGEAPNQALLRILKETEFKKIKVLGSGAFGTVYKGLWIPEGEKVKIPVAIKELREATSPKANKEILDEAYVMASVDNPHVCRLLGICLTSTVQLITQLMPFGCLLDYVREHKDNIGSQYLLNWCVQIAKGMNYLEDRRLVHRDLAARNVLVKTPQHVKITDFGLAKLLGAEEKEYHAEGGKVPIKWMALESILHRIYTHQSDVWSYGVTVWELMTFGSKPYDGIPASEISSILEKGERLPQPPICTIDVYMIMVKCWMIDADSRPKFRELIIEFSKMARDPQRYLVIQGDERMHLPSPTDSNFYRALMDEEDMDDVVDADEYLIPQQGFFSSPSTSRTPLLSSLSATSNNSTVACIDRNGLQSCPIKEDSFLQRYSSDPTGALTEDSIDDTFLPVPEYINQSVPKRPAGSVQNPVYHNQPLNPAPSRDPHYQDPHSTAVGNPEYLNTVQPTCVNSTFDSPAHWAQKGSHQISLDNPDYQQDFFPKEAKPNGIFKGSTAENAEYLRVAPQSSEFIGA

IC50 [nM]	SMILES
680	N#C/C(=C\c1cc(O)c(O)c(Cl)c1)C(=O)Nc1cccc(Cl)c1
490	N#C/C(=C\c1cc(O)c(O)c(Br)c1)C(=O)Nc1cccc(Cl)c1
2300	N#C/C(=C\c1cc(O)c(O)c(C(F)(F)F)c1)C(=O)Nc1cccc(Cl)c1
1300	Cc1cc(/C=C(\C#N)C(=O)Nc2cccc(Cl)c2)cc(O)c1O
420	COc1cc(/C=C(\C#N)C(=O)Nc2cccc(Cl)c2)cc(C)c1O
960	N#C/C(C(=O)Nc1ccccc1)=C(\O)c1ccc(O)c(O)c1
2100	COc1cc(/C=C(\C#N)C(=O)Nc2cccc(Cl)c2)ccc1O
280	N#C/C(=C\c1cc(O)c(O)c(Br)c1Br)C(=O)Nc1cccc(Cl)c1
2600	CCOc1cc(/C=C(\C#N)C(N)=O)cc(CSc2ccccc2)c1O
1100	N#C/C(=C\c1cc(Br)c(O)c(Br)c1)C(=O)Nc1cccc(Cl)c1
1800	COc1cc(/C=C(\C#N)C(=O)Nc2cccc(Cl)c2)cc([N+](=O)[O-])c1O
1000	N#C/C(=C\c1cc(O)c(O)c(C#N)c1)C(=O)Nc1cccc(Cl)c1
1400	COc1cc(/C=C(\C#N)C(=O)Nc2cccc(Cl)c2)cc(S(C)(=O)=O)c1O
680	COc1cc(/C=C(\C#N)C(=O)Nc2cccc(Cl)c2)cc(Cl)c1O
1800	COc1cc(/C=C(\C#N)C(=O)Nc2ccccc2)cc(Br)c1O
1400	COc1cc(/C=C(\C#N)C(=O)Nc2cccc(Cl)c2)cc(Br)c1O
900	Cc1cc(/C=C(\C#N)C(=O)Nc2cccc(Cl)c2)cc(C)c1O
280	N#C/C(=C\c1cc(O)c(O)cc1[N+](=O)[O-])C(=O)Nc1cccc(Cl)c1

SMILES	IC50 [nM]
N#C/C(=C\c1cc(O)c(O)c(Cl)c1)C(=O)Nc1ccccc1	1200
Cc1cccc(NC(=O)/C(C#N)=C/c2ccc(O)c(O)c2)c1	2100
N#C/C(=C\c1ccc(O)c(O)c1)C(=O)Nc1cccc(Cl)c1	1400
COc1cc(/C=C(\C#N)C(=O)Nc2ccccc2)cc(Cl)c1O	1600
COc1cc(/C=C(\C#N)C(=O)Nc2cccc(Cl)c2)cc(F)c1O	1600
N#C/C(=C\c1cc(O)c(O)c(F)c1)C(=O)Nc1cccc(Cl)c1	600

— the Kinase Knowledgebase extract (Sharma et al. 2016)
